From PMC4667271, “Discovery of a Novel Inhibitor of the Protein Tyrosine Phosphatase Shp2” (Scientific Reports, 2015)

Tests used:
[1] = biological target: T1, full-length Shp2 (Shp2 FL) (Homo sapiens, UniProt Q06124); experiment: in vitro PTP assay (pNPP), full-length Shp2; type: biochemical
T1 sequence (Q06124 1-593): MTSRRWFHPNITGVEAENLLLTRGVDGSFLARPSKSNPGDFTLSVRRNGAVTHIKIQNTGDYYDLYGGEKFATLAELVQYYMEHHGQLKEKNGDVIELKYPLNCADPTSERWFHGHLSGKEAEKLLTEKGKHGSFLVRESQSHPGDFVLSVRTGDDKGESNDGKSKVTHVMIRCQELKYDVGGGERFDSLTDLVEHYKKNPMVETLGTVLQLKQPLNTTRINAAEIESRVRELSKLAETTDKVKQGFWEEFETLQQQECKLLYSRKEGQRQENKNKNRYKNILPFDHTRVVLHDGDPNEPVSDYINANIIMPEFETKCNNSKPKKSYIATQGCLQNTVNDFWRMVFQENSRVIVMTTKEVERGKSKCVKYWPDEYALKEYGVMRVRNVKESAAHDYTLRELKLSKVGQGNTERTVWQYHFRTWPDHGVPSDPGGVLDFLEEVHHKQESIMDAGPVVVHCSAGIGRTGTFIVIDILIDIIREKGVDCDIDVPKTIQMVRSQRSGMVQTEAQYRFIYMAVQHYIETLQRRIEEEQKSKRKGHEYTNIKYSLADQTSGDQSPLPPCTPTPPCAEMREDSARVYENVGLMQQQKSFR
Protocol: (§1) Plasmids for expression of His-tag fusion proteins of human PTP were constructed in PET-28a by PCR subcloning techniques. The constructions contain only the PTP domain except Full-length Shp2. Full-length Shp2 containing Tyr279-to-Ala mutant was generated by PCR-based mutagenesis. All constructs were verified by DNA sequencing. PTP-His fusion proteins were expressed in Escherichia coli BL21 and lysed in the buffer (50 mM NaH2PO4, 300 mM NaCl, 250 mM imidazole, 1 mM dithiothreitol plus 5% glycerol), purified with Ni-NTA Magnetic Agarose Beads (Qiagen). The His-tag recombinant purification protocol was carried out according to the purification under native conditions of the QIAexpress System.
(§2) The assay was set in wells of 96-well plate with a final volume of 100 μl of reaction mixture containing 10 mM of NaAc-HAc, 1 mM of ethylene diamine tetraacetic acid, 1 mM of DL-dithiothreitol and 2% of dimethyl sulfoxide, pH 5.5. Activity of the enzyme was assayed by incubating recombinant PTP protein or mutant PTP with various concentrations of Fumos in the mixture at 37 °C for 30 min. Absorbance at 405 nm was detected immediately after addition of varied concentrations of substrate, p-nitrophenyl phosphate (pNPP) to each corresponding well.

[2] = system: ERK1/2 activation in transfected HEK293T cells; experiment: ERK activity after Shp2 or PTP1B overexpression in HEK293T; type: cell-based, human; conditions: 20 μM Fumos 24 h
Protocol: HEK293T, MDA-MB-231and HeLa cell lines were obtained from CRC/PUMC. Cell lines were maintained in Dulbecco’s modified Eagle’s medium supplemented with 10% fetal bovine serum. Transfections were performed in 6-well plates according to manufacturer (Invitrogen Lipofectamine LTX).Briefly, for transient transfection of HEK293T cells, subconfluent cells in 6-well plates were incubated with 2 ml of Dulbecco’s modified Eagle’s medium containing 2.5 μg of total DNA and 7.5 μl of each Lipofectamine and Plus reagent (Invitrogen) and then serum-starved in DMEM/0.1% bovine serum albumin for 18 h. After Fumos treatment for 24 h, cells were stimulated for 5 min with 20 ng/ml EGF.
Figure S2. Fumos inhibits Shp2-mediated ERK1/2 activation in human cells. […]
vectors for PTP1B and Shp2, and either untreated or treated with 20 μM Fumos for 24 h, respectively. Total cell lysates were immunoblotted with antibodies specific for […]
(1 picture or pasted object on this page, not shown here)

[3] = system: ERK1/2 phosphorylation in HeLa cells; experiment: EGF-induced ERK1/2 activation, Western blot, HeLa; type: cell-based, human; conditions: 10-40 μM for 24 h, EGF 20 ng/ml 5 min
Text: (§3) After centrifugation, the supernatant was collected.

PTPH1 = PTPH1 (Homo sapiens, UniProt P26045); experiment: in vitro PTP assay (pNPP), PTPH1; type: biochemical
PTPH1, sequence (P26045 646-901 limits assumed): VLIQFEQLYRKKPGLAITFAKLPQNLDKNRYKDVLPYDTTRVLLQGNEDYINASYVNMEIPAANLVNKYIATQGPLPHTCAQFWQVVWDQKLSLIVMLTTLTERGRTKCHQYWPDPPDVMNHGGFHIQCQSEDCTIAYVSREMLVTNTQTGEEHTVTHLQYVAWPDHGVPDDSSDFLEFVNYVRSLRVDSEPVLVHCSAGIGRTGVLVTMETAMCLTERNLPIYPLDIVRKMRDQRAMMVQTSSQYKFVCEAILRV
Protocol: as §1, §2

[4] = system: EGF-induced Ras activation in HeLa cells; experiment: Ras activation assay (GST-RBD pull-down), HeLa; type: cell-based, human; conditions: Fumos 20 μM
Protocol: Active Ras was detected by use of the RBD of raf-1 fused to glutathione S-transferase (GST) as described previously. Cells were lysed in MLB buffer (25 mM Hepes, 150 mM NaCl, 1% Nonidet P-40, 0.25% sodium deoxycholate, 10% glycerol, 25 mM NaF, 1 mM Na3VO4, 10 mM MgCl2, 1 mM EDTA, pH 7.5) supplemented with complete EDTA-free protease inhibitor mixture. Total 500 μg cell lysate was incubated with 10–20 μg of GST-RBD bound beads(Merck) overnight at 4 °C. The beads were pelleted by centrifugation and washed three times with MLB buffer. The beads were boiled in SDS loading buffer and subjected to electrophoresis, followed by immunoblotting with an anti-Ras antibody (Santa Cruz Biotechnology).

Meg2 = Meg2 (Homo sapiens, UniProt P43378); experiment: in vitro PTP assay (pNPP), Meg2; type: biochemical
Meg2, sequence (P43378 303-574 limits assumed): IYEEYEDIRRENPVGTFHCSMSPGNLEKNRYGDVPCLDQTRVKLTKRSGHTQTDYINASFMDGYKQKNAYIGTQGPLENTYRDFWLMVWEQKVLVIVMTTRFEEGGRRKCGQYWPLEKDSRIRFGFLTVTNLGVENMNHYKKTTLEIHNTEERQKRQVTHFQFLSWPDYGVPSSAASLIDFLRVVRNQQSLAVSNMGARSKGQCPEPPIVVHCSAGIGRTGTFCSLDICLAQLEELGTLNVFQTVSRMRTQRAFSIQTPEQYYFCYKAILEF
Protocol: as §1, §2

[5] = system: Src and Paxillin phosphorylation in MDA-MB-231 cells; experiment: Src, PLCγ1 and Paxillin phosphorylation, Western blot, MDA-MB-231; type: cell-based, human; conditions: 10-40 μM 24 h, EGF
Text: Figure 6 Fumos affects the phosphorylation of Src and Paxillin. […] DMSO treatment as control. Western blotting analysis for the expression of p-Src(Tyr416) p-Src (Tyr530), Src, p-PLCγ1, PLCγ1, p-Paxillin(Tyr118), p-Paxillin (Tyr31) and Paxillin. (b,c) Densitometric analysis of pSrc530/Src in the Western blots of Hela and MDA-MB-231, respectively. Bars represent mean ± S.E.M. values from three experiments, **p = 0.006 < 0.01/F = 8 vs EGF, one-way ANOVA followed by Tukey’s test.
as §3

CC[C@@H](C)C[C@@H](C)/C=C(C)/C=C/C=C/C=C(\C)C(=O)c1c(O)c(-c2ccc(O)cc2)cn(O)c1=O [Fumos, Fumosorinone] was tested. Which IC50 selective ([1]; Shp2 FL relative to Shp2 PTP domain) did it give?
The IC50 selective was 4.

And the IC50 ([1]; full-length Shp2 (Shp2 FL))?
Its IC50 is 26.5 ± 0.37 µM.

What about the “ERK activity after Fumos treatment in cells transfected with PTP1B” value [2] of the same compound?
The value was “little recovery”.

And the “ERK activity after Fumos treatment in cells transfected with Shp2” value [2]?
Its value is “partially recovered”.

And the “EGF-induced ERK1/2 phosphorylation” value [3]?
The value was “drastically decreased”.

What about the IC50 (PTPH1; PTPH1 PTP domain) of the same compound?
The IC50 was > 100 µM.

What about the IC50 selective (PTPH1; PTPH1 relative to Shp2 PTP domain) of the same compound?
The IC50 selective was >16.

What about the “EGF-induced endogenous Ras activation” value [4] of the same compound?
Its value is “inhibited”.

What about the IC50 (Meg2; Meg2 PTP domain) of the same compound?
Its IC50 is > 100 µM.

And the IC50 selective (Meg2; Meg2 relative to Shp2 PTP domain)?
The IC50 selective was >16.

And the “Src Tyr416 phosphorylation” value [5]?
Its value is “dose-dependent downregulation”.

What about the “phosphorylated Tyr 530 of Src” value [5] of the same compound?
The value was “moderately increased”.

What about the “phosphorylation of PLCγ1” value [5] of the same compound?
Its value is “decreased”.

And the “phosphorylation of Paxillin at Tyr31” value [5]?
Its value is “peaked at low concentrations of Fumos and reduced at high concentrations”.

What about the “phosphorylation of Paxillin at Tyr118” value [5] of the same compound?
Its value is “decreased with the increasing concentrations”.
